Laboratory results reported in patent US20150219624A1, “METHODS FOR IDENTIFYING ANTI-CANCER COMPOUNDS” (MEMORIAL SLOAN KETTERING CANCER CENTER, priority 2013, published 2015).
“And” between values parts separate entries of the source, which are not always exact repeats. Equal values may be shown once.

Experiment: In vivo toxicity studies (body and organ weights, hematology, clinical chemistry, histopathology)
Conditions: for CHOL, % ChVh / Ca, % ChVh / Cl, % ChVh / GLUC, % ChVh / K, % ChVh / Na, % ChVh / Na/K, % ChVh / P, % ChVh / CHOL, Mean / Ca, Mean / Cl, Mean / GLUC, Mean / K, Mean / Na, Mean / P, Mean: 0.2 mg/kg Female
Method: Toxicity studies. Eight week-old C57Bl/6NTac female mice were randomly assigned to either control or treatment groups. Each treatment group received one daily dose of test article through i.p. injection over 5 consecutive days. Toxicity was monitored by weight loss and daily clinical observation for the 14 days following test article administration. 24 hours after the last test article administration 4 mice in each group were sacrificed and clinical chemistry, hematology and tissue specific histopathology were done at autopsy. The remaining mice (n=2 per group) were kept under observation for an additional 13 days; at that point all mice were sacrificed and clinical chemistry, hematology and tissue specific histopathology were done at time of autopsy.
D) KOPT-K1 xenograft studies.

[1] = 0.2 mg/kg, female, Day 5, % change of mean vs vehicle
[2] = 0.2 mg/kg, female, Day 5, fold change of mean vs vehicle
[3] = 0.2 mg/kg, female, Day 5, group mean
[4] = 0.2 mg/kg, female, Day 5, individual animals

(±)-CR-31-B
CHOL, % ChVh (Day 5, change vs vehicle): 0.0% | Ca, % ChVh (Day 5, change vs vehicle): 2.2% | Cl, % ChVh (Day 5, change vs vehicle): 0.6% | GLUC, % ChVh (Day 5, change vs vehicle): 1.8% | K, % ChVh (Day 5, change vs vehicle): −4.5% | Na, % ChVh (Day 5, change vs vehicle): −0.2% | Na/K, % ChVh (Day 5, change vs vehicle): 1.4% | P, % ChVh (Day 5, change vs vehicle): −14.6% | CHOL, Mean (Day 5, group mean, N 4): 66.0 mg/dL | Ca, Mean (Day 5, group mean, N 4): 9.1 mg/dL | Cl, Mean (Day 5, group mean, N 4): 114.0 mEq/L | GLUC, Mean (Day 5, group mean, N 4): 297.3 mg/dL | K, Mean (Day 5, group mean, N 4): 4.2 mEq/L | Na, Mean (Day 5, group mean, N 4): 149.0 mEq/L | P, Mean (Day 5, group mean, N 4): 7.0 mg/dL | CHOL, % ChVh (Day 19, change vs vehicle): −2.3% | Ca, % ChVh (Day 19, change vs vehicle): −3.2% | Cl, % ChVh (Day 19, change vs vehicle): −1.3% | GLUC, % ChVh (Day 19, change vs vehicle): −7.9% | K, % ChVh (Day 19, change vs vehicle): −9.5% | Na, % ChVh (Day 19, change vs vehicle): 0.0% | Na/K, % ChVh (Day 19, change vs vehicle): 12.9% | P, % ChVh (Day 19, change vs vehicle): 50.0% | CHOL, Mean (Day 19, group mean, N 2): 65.0 mg/dL | Ca, Mean (Day 19, group mean, N 2): 9.2 mg/dL | Cl, Mean (Day 19, group mean, N 2): 114.5 mEq/L | GLUC, Mean (Day 19, group mean, N 2): 240.5 mg/dL | K, Mean (Day 19, group mean, N 2): 3.8 mEq/L | Na, Mean (Day 19, group mean, N 2): 148.0 mEq/L | P, Mean (Day 19, group mean, N 2): 10.2 mg/dL | ALB % ChVh [1]: 3.3% | BASO % % ChVh [1]: −72.7% | BASO (K/uL) % ChVh [1]: −100.0% | BUN % ChVh [1]: 3.0% | Body Weight % ChVh [1]: −3.8% | CRTN % ChVh [1]: 11.1% | EOS % % ChVh [1]: −70.0% | EOS (K/uL) % ChVh [1]: 0.0% | GLOB % ChVh [1]: 5.9% | HCT % % ChVh [1]: 3.4% | HGB % ChVh [1]: 4.4% | LYM % % ChVh [1]: −14.6% | LYM (K/uL) % ChVh [1]: −21.2% | Left Kidney (% body wt) % ChVh [1]: −10.5% | Left Kidney (gm) % ChVh [1]: −12.5% | Liver (% body wt) % ChVh [1]: 2.1% | Liver (gm) % ChVh [1]: −1.6% | MCH % ChVh [1]: 2.5% | MCHC % ChVh [1]: 0.9% | MCV % ChVh [1]: 1.4% | MONO % % ChVh [1]: 21.2% | MONO (K/uL) % ChVh [1]: 8.3% | MPV % ChVh [1]: −5.6% | NEUT % % ChVh [1]: 97.8% | NEUT (K/uL) % ChVh [1]: 87.2% | PLT % ChVh [1]: −29.0% | RBC % ChVh [1]: 1.9% | RDW % % ChVh [1]: −0.6% | Right Kidney (% body wt) % ChVh [1]: −11.6% | Right Kidney (gm) % ChVh [1]: −15.4% | Spleen (% body wt) % ChVh [1]: 17.6% | Spleen (gm) % ChVh [1]: 13.6% | TBIL % ChVh [1]: 0.0% | TP % ChVh [1]: 4.3% | WBC % ChVh [1]: −7.7% | ALP FoldChVh [2]: 1.0 | ALT FoldChVh [2]: 1.3 | AST FoldChVh [2]: 1.2 | ALB [3]: 3.1 g/dL | ALP [3]: 124.3 U/L | ALT [3]: 25.0 U/L | AST [3]: 41.3 U/L | BASO [3]: 0.00 K/uL | BASO % [3]: 0.03% | BUN [3]: 27.3 mg/d L | Body Weight [3]: 16.680 gm | CRTN [3]: 0.20 mg/dL | EOS [3]: 0.01 K/uL | EOS % [3]: 0.06% | GGT [3]: 0.0 U/L | GLOB [3]: 1.8 g/dL | HCT % [3]: 45.6% | HGB [3]: 13.7 g/dL | LYM [3]: 4.31 K/uL | LYM % [3]: 72.97% | MCH [3]: 15.3 pg | MCHC [3]: 30.0 g/dL | MCV [3]: 50.9 fL | MONO [3]: 0.13 K/uL | MONO % [3]: 2.17% | MPV [3]: 4.3 fL | NEUT [3]: 1.46 K/uL | NEUT % [3]: 24.77% | PLT [3]: 725.8 K/uL | RBC [3]: 8.96 M/uL | RDW % [3]: 15.8% | TBIL [3]: 0.18 mg/d L | TP [3]: 4.9 g/dL | WBC [3]: 5.91 K/uL | ALB [4]: 3.3 g/dL and 3.0 g/dL and 2.9 g/dL and 3.1 g/dL | ALP [4]: 116 U/L and 114 U/L and 123 U/L and 144 U/L | ALT [4]: 26 U/L and 20 U/L (2×) and 34 U/L | AST [4]: 51 U/L and 35 U/L (2×) and 44 U/L | BASO [4]: 0.00 K/uL | BASO % [4]: 0.07% and 0.04% and 0.00% (2×) | BUN [4]: 27 mg/d L (2×) and 26 mg/d L and 29 mg/d L | Body Weight [4]: 15.962 gm and 17.217 gm and 17.463 gm and 16.078 gm | CHOL [4]: 68 mg/dL and 66 mg/dL (2×) and 64 mg/dL | CRTN [4]: 0.2 mg/dL | Ca [4]: 8.9 mg/dL and 9.0 mg/dL and 9.3 mg/dL (2×) | Cl [4]: 116 mEq/L and 113 mEq/L (2×) and 114 mEq/L | EOS [4]: 0.00 K/uL (2×) and 0.01 K/uL (2×) | EOS % [4]: 0.01% and 0.14% and 0.00% and 0.10% | GGT [4]: 0 U/L | GLOB [4]: 1.8 g/dL (3×) and 1.9 g/dL | GLUC [4]: 270 mg/dL and 335 mg/dL and 261 mg/dL and 323 mg/dL | HCT % [4]: 48.3% and 45.1% and 43.9% and 45.0% | HGB [4]: 14.3 g/dL and 13.8 g/dL and 13.0 g/dL and 13.5 g/dL | K [4]: 4.6 mEq/L and 4.0 mEq/L and 4.4 mEq/L and 3.9 mEq/L | LYM [4]: 3.64 K/uL and 4.96 K/uL and 3.49 K/uL and 5.13 K/uL | LYM % [4]: 76.21% and 71.86% and 70.06% and 73.76% | Left Kidney [4]: 0.108 gm and 0.133 gm and 0.138 gm and 0.125 gm and 0.75 % body wt and 0.77 % body wt and 0.79 % body wt and 0.78 % body wt | Liver [4]: 0.807 gm and 0.969 gm and 0.914 gm and 0.843 gm and 5.06 % body wt and 5.63 % body wt and 5.23 % body wt and 5.24 % body wt | MCH [4]: 15.4 Pg (2×) and 15.0 Pg and 15.2 Pg | MCHC [4]: 29.6 g/dL (2×) and 30.6 g/dL and 30.0 g/dL | MCV [4]: 51.9 fL and 50.4 fL and 50.5 fL and 50.6 fL | MONO [4]: 0.08 K/uL and 0.24 K/uL and 0.09 K/uL and 0.12 K/uL | MONO % [4]: 1.77% and 3.45% and 1.74% and 1.70% | MPV [4]: 4.3 fL (3×) and 4.1 fL
